Assay results as given in ChEMBL document CHEMBL3588811, “Boehmenan, a lignan from Hibiscus ficulneus, showed Wnt signal inhibitory activity” (Bioorg Med Chem Lett, 2015).
Activity calls are given as the source filed them. The rule behind the calls is not given here.

What was measured:
HEK293 [1] = experiment: Reduction in beta-catenin level in human HEK293 cell nucleus stably transfected with TOP reporter gene at 1 to 20 uM after 24 hrs by Western blot analysis; type: functional, cell-based
HCT-116 = experiment: Cytotoxicity against human Wnt-dependent HCT116 cells after 24 hrs by fluorometric microculture cytotoxicity assay; type: functional, cell-based; details: HCT-116, 24 h
HEK293 [2] = experiment: Cytotoxicity against human HEK293 cells after 24 hrs by fluorometric microculture cytotoxicity assay; type: cell-based; details: HEK293, 24 h
HEK293 [3] = experiment: Reduction in beta-catenin level in human HEK293 cell nucleus stably transfected with TOP reporter gene at 20 uM after 24 hrs by Western blot analysis in presence of 1 uM MG132; type: functional, cell-based
[4] = Cytotoxicity against human Wnt-dependent DLD1 cells after 24 hrs by fluorometric microculture cytotoxicity assay; type: functional, cell-based; details: DLD-1, 24 h
HEK293 [5] = experiment: Inhibition of Wnt/beta-catenin signaling in HEK293 cells stably transfected with FOP reporter gene assessed as TCF/beta-catenin transcriptional activity after 24 hrs by FOP activity/luciferase reporter gene assay; type: cell-based; details: Homo sapiens
SW480 = experiment: Cytotoxicity against human Wnt-dependent SW480 cells after 24 hrs by fluorometric microculture cytotoxicity assay; type: functional, cell-based; details: SW480, 24 h
HEK293 [6] = experiment: Inhibition of Wnt/beta-catenin signaling in HEK293 cells stably transfected with TOP reporter gene assessed as TCF/beta-catenin transcriptional activity after 24 hrs by TOP activity/luciferase reporter gene assay; type: cell-based; details: Homo sapiens; for IC50: HEK293, 24 h
HEK293 [7] = experiment: Reduction in c-myc level in human HEK293 cell nucleus stably transfected with TOP reporter gene at 1 to 20 uM after 24 hrs by Western blot analysis; type: functional, cell-based
RKO = experiment: Cytotoxicity against human Wnt-independent RKO cells after 24 hrs by fluorometric microculture cytotoxicity assay; type: functional, cell-based
HEK293 [8] = experiment: Reduction in beta-catenin level in human HEK293 cell cytosol stably transfected with TOP reporter gene at 1 to 20 uM after 24 hrs by Western blot analysis; type: functional, cell-based

Row | Structure (SMILES) | inhibition (HEK293 [1]) | IC50 (HCT-116) | IC50 (HEK293 [2]) | inhibition (HEK293 [3]) | IC50 [4] | Activity (HEK293 [5]) | IC50 (SW480) | inhibition (HEK293 [6]) | IC50 (HEK293 [6]) | inhibition (HEK293 [7]) | IC50 (RKO) | inhibition (HEK293 [8])
1 | COc1cc(/C=C/C(=O)OCCCc2cc(OC)c3c(c2)[C@@H](COC(=O)/C=C/c2ccc(O)c(OC)c2)[C@H](c2ccc(O)c(OC)c2)O3)ccc1O | Active | > 22.8 µM | 30.3 µM | inactive | > 40 µM | inactive | > 40 µM | Dose-dependent effect | 1 µM | Active | 25.4 µM | Active
2 | COc1cc(/C=C/C(=O)OCCCc2ccc(O[C@@H](COC(=O)/C=C/c3ccc(O)c(OC)c3)[C@@H](O)c3ccc(O)c(OC)c3)c(OC)c2)ccc1O (relative stereo) |  | > 40 µM | 26.4 µM |  | > 40 µM | inactive | > 40 µM | Dose-dependent effect | 6.3 µM |  | 36.1 µM | 
3 | CC1(C)CC[C@]2(C(=O)O)CC[C@]3(COC(=O)/C=C/c4ccc(O)c(O)c4)C(=CC[C@@H]4[C@@]5(C)CC[C@H](OC(=O)/C=C/c6ccc(O)c(O)c6)C(C)(C)[C@@H]5CC[C@]43C)[C@@H]2C1 |  | > 40 µM | 29.3 µM |  | > 40 µM |  | > 40 µM |  | 14.8 µM |  | > 40 µM | 
4 | COc1cc(/C=C/C(=O)OCCCc2cc(OC)c3c(c2)[C@@H](COC(=O)/C=C/c2ccc(O)c(OC)c2)[C@H](c2cc(OC)c(O)c(OC)c2)O3)ccc1O |  | > 40 µM | 36.1 µM |  | > 40 µM | inactive | > 40 µM | Dose-dependent effect | 1.9 µM |  | > 40 µM | 
5 | COc1cc(/C=C/C(=O)OCCCc2ccc(O[C@@H](COC(=O)/C=C/c3ccc(O)c(OC)c3)[C@@H](O)c3ccc(O)c(OC)c3)c(O)c2)ccc1O |  | > 39 µM | 24.2 µM |  | > 40 µM | inactive | > 40 µM | Dose-dependent effect | 4.5 µM |  | 23 µM | 
